This note sets out measurements from patent US6683107B2, “Furans, benzofurans, and thiophenes useful in the treatment of insulin resistance and hyperglycemia” (Wyeth, priority 1998, dated 2004).

Structures can show the parent of a compound that is named as a salt.

Series [1] has as its target T1, human recombinant PTP1B (hPTP1B) (Homo sapiens, UniProt P18031).
T1 construct: made in house
T1 sequence (P18031 1-435): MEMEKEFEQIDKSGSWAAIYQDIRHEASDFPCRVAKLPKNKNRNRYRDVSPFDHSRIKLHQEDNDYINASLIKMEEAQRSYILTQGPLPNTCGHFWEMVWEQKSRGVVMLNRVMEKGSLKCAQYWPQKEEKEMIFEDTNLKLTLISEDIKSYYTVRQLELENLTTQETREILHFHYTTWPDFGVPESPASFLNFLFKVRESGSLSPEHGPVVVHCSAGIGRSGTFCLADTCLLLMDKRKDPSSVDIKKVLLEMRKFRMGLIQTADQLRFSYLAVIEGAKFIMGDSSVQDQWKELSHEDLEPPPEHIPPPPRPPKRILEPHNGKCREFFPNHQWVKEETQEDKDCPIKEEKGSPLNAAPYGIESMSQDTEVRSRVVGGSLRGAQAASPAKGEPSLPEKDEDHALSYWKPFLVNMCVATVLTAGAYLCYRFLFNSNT
In words: Inhibition of tri-phosphorylated insulin receptor dodecaphosphopeptide dephosphorylation by hPTP1B (malachite green phosphate detection). In kind it is biochemical. To be noted: for IC50: recombinant PTP1B, insulin receptor 1142-1153 triphosphopeptide substrate, 37° C., 30 min, pH 7.4; for inhibition at 1 µM: compound at 1.0 μM, percent of phosphatase control.

`CCc1oc2ccccc2c1C(=O)c1cc(-c2ccccc2)c(OS(=O)(=O)c2ccc(C(=O)O)c(O)c2)c(-c2ccccc2)c1` (as salt: sodium) [Example 6, 4-[5′-(2-Ethyl-benzofuran-3-carbonyl)-[1,1′: 3′,1″]terphenyl-2′-yloxysulfonyl-]2-hydroxy-benzoic acid sodium salt]: the melting point – broadly, the temperature, or range, at which the solid turns liquid – was in the range of 211 to 212 °C.

The compound `CCc1oc2ccccc2c1C(=O)c1cc(Br)c(OS(=O)(=O)c2ccc(C(=O)O)c(O)c2)c(Br)c1` [Example 1, 4-[2,6-Dibromo-4-(2-ethyl-benzofuran-3-carbonyl)-phenoxysulfonyl]-2-hydroxy-benzoic acid] registered a melting point of 173 °C. Moreover, the IC50 (commonly the concentration at which inhibition is half-maximal) in series [1] was found to be 251 nM.

Take `Cc1oc(Cc2ccc3ccccc3c2)c(C(=O)c2cc(C(C)C)c(OS(=O)(=O)c3ccc(C(=O)O)c(O)c3)c(C(C)C)c2)c1C` [Example 8, 4-[4-(4,5-Dimethyl-2-naphthalen-2-ylmethyl-furan-3-carbonyl)-2,6-diisopropyl-phenoxysulfonyl]-2-hydroxy-benzoic acid]: the melting point was 130 to 135 °C. Moreover, in series [1], the concentration for half-maximal inhibition (IC50) was found to be 75 nM.

In the case of `Cc1oc(Cc2ccccc2Br)c(C(=O)c2cc(C(C)C)c(OS(=O)(=O)c3ccc(C(=O)O)c(O)c3)c(C(C)C)c2)c1C` [Example 9, 4-{4-[2-(2-Bromo-benzyl)-4.5-dimethyl-furan-3-carbonyl]-2.6-diisopropyl-phenoxysulfonyl}-2-hydroxy-benzoic acid], the melting point was in the range of 90 to 95 °C. Also, in series [1], the half-inhibitory concentration (IC50) worked out at 83 nM.

On to `Cc1oc(Cc2ccccc2Br)c(C(=O)c2ccc(OS(=O)(=O)c3ccc(C(=O)O)c(O)c3)c(C3CCCC3)c2)c1C` [Example 21, 4-{4-[2-(2-Bromo-benzyl)4,5-dimethyl-furan-3-carbonyl]-2-cyclopentyl-phenoxysulfonyl}-2-hydroxy-benzoic acid], for which the melting point is 72 to 82 °C. Moreover, in series [1], the half-maximal inhibitory concentration (IC50) was determined as 371 nM.

`Cc1sc(Cc2ccccc2)c(C(=O)c2ccc(OS(=O)(=O)c3ccc(C(=O)O)c(O)c3)c(C3CCCC3)c2)c1C` [Example 18, 4-[4-(2-Benzyl-4,5-dimethyl-thiophene-3-carbonyl)-2-cyclopentyl-phenoxysulfonyll-]2-hydroxy-benzoic acid] returned a melting point of 70 to 77 °C. In addition, in series [1], the half-maximal inhibitory concentration (IC50) was 404 nM.

In the case of `Cc1cc(C(=O)c2c(Cc3ccccc3)oc(C)c2C)cc(-c2ccccc2)c1OS(=O)(=O)c1ccc(C(=O)[O-])c(O)c1.[Na+]` [Example 7, 4-[5-(2-Benzyl4,5-dimethyl-furan-3-carbonyl)-3-methyl-biphenyl-2-yloxysulfonyl]-2-hydroxy-benzoic acid sodium salt], the melting point was 187 to 190 °C. In addition, the half-inhibitory concentration (IC50) in series [1] was determined as 180 nM.

`CCCCc1oc2ccccc2c1CCc1ccc(OS(=O)(=O)c2ccc(C(=O)O)c(O)c2)cc1` [Example 14, 4-{4-[2-(2-Butyl-benzofuran-3-yl)-ethyl]-phenoxysulfonyl}-2-hydroxy-benzoic acid] displayed a melting point of 93 to 95 °C. Moreover, the concentration for half-maximal inhibition (IC50) in series [1] was 60 nM.

Compound `CCc1oc2ccccc2c1C(=O)c1cc(C(C)C)c(OS(=O)(=O)c2ccc(C(=O)O)c(O)c2)c(C(C)C)c1` [Example 4, 4-[4-(2-Ethyl-benzofuran-3-carbonyl)-2,6-diisopropyl-phenoxysulfonyl]-2-hydroxy-benzoic acid] had a melting point of 200 to 201 °C. For the same compound, the IC50 in series [1] worked out at 559 nM.

For the compound `CC(=O)Oc1cc(S(=O)(=O)Oc2ccc(C(=O)c3c(Cc4ccccc4)sc(C)c3C)cc2C2CCCC2)ccc1C(=O)O` [Example 23, 2-Acetoxy4-[4-(2-benzyl-4,5-dimethyl-thiophene-3-carbonyl)-2-cyclopentyl-phenoxysulfonyl]-benzoic acid], the melting point was 94 to 96 °C. The IC50 in series [1] amounted to 439 nM.

Regarding `CCCCc1oc2ccccc2c1CCc1ccc(OS(=O)(=O)c2ccc(C(=O)O)c(OC(C)=O)c2)cc1` [Example 26, 2-Acetoxy-4-{4-[2-(2-butyl-benzofuran-3-yl)-ethyl]-phenoxysulfonyl}-benzoic acid], the melting point lay within 54 to 57 °C. The inhibition (in general, the change of the read-out against control, counted positive when it falls) at 1 µM in series [1] was determined as 51.4%.

In turn, `Cc1oc(Cc2cccc(Br)c2)c(C(=O)c2cc(C(C)C)c(OS(=O)(=O)c3ccc(C(=O)O)c(O)c3)c(C(C)C)c2)c1C` [Example 10, 4-{4-[2-(3-Bromo-benzyl)-4.5-dimethyl-furan-3-carbonyl]-2.6-diisopropylphenoxysulfonyl}-2-hydroxy-benzoic acid] registered a melting point of 148 °C. Besides, the IC50 in series [1] is 226 nM.

As for `CCc1oc2ccccc2c1C(=O)c1cc(-c2ccccc2)c(OS(=O)(=O)c2ccc(C(=O)O)c(O)c2)c(-c2ccccc2)c1` [Example 6, 4-[5′-(2-Ethyl-benzofuran-3-carbonyl)-[1,1′: 3′,1″]terphenyl-2′-yloxysulfonyl-]2-hydroxy-benzoic acid sodium salt], in series [1], the concentration for half-maximal inhibition (IC50) came out at 256 nM.

With `Cc1sc(Cc2ccc(Br)cc2)c(C(=O)c2ccc(OS(=O)(=O)c3cnn(C)c3)c(C3CCCC3)c2)c1C` [Example 27, 1-Methyl-1H-pyrazole-4-sulfonic acid 4-[2-(4-bromo-benzyl)-4,5-dimethyl-thiophene-3-carbonyl]-2-cyclopentyl-phenyl ester], the melting point fell in the range of 55 to 60 °C. Further, the inhibition at 1 µM in series [1] amounted to 22.7%.

Regarding `Cc1sc(Cc2ccc(Br)cc2)c(C(=O)c2ccc(OS(=O)(=O)c3ccc(C(=O)O)c(O)c3)c(C3CCCC3)c2)c1C` [Example 20, 4-{4-[2-(4-Bromo-benzyl)4.5-dimethyl-thiophene-3-carbonyl]-2-cyclopentylphenoxysulfonyl}-2-hydroxy-benzoic acid], the melting point was in the range of 165 to 170 °C. In series [1], the 50% inhibitory concentration (IC50) is 148 nM.

Regarding `CC(=O)Oc1cc(S(=O)(=O)Oc2ccc(C(=O)c3c(Cc4ccc(Br)cc4)sc(C)c3C)cc2C2CCCC2)ccc1C(=O)O` [Example 24, 2-Acetoxy-4-{4-[2-(4-Bromo-benzyl)-4,5-dimethyl-thiophene-3-carbonyl]-2-cyclopentyl-phenoxysulfonyl}-benzoic acid], the melting point fell in the range of 113 to 114 °C. Besides, the IC50 in series [1] was 254 nM.

`CC(=O)Oc1cc(S(=O)(=O)Oc2ccc(C(=O)c3c(Cc4ccccc4Br)oc(C)c3C)cc2C2CCCC2)ccc1C(=O)O` [Example 25, 2-Acetoxy-4-{4-[2-(2-Bromo-benzyl)-4,5-dimethyl-fuiran-3-carbonyl]-2-cyclopentyl-phenoxysulfonyl}-benzoic acid] had a melting point of 79 °C. The half-maximal inhibitory concentration (IC50) in series [1] was 241 nM.

Consider `Cc1oc(Cc2ccccc2)c(C(=O)c2cc(C(C)C)c(OS(=O)(=O)c3ccc(C(=O)O)c(O)c3)c(C(C)C)c2)c1C` [Example 5, 4-[4-(2-Benzyl-4,5-dimethyl-furan-3-carbonyl)-2,6-diisopropyl-phenoxysulfonyl]-2-hydroxy-benzoic acid], for which the melting point was in the range of 142 to 143 °C. Also, the IC50 in series [1] is 83 nM.

Compound `CCCCc1oc2ccccc2c1C(=O)c1cc(-c2ccccc2)c(OS(=O)(=O)c2ccc(C(=O)O)c(O)c2)c(-c2ccccc2)c1` [Example 2, 4-[5′-(2-Butyl-benzofuran-3-carbonyl)-[1,1′; 3′1″]terphenyl-2′-yloxysulfonyl]-2-hydroxy-benzoic acid] displayed a melting point of 190 to 197 °C. Moreover, the IC50 in series [1] is 130 nM.

With `Cc1oc(Cc2ccc(Br)cc2)c(C(=O)c2cc(C(C)C)c(OS(=O)(=O)c3ccc(C(=O)O)c(O)c3)c(C(C)C)c2)c1C` [Example 11, 4-{4-[2-(4-Bromo-benzyl)4,5-dimethyl-fuiran-3-carbonyl]-2,6-diisopropyl-phenoxysulfonyl}-2-hydroxy-benzoic acid], the melting point fell in the range of 165 to 168 °C. The IC50 in series [1] was determined as 99 nM.

Take `CCc1cc(C(=O)c2c(Cc3ccccc3)oc(C)c2C)cc(CC)c1OS(=O)(=O)c1ccc(C(=O)O)c(O)c1` [Example 19, 4-[4-(2-Benzyl-4,5-dimethyl-furan-3-carbonyl)-2.6-diethyl-phenoxysulfonyl]-2-hydroxy-benzoic acid]: the melting point fell in the range of 143 to 147 °C. The IC50 in series [1] amounted to 633 nM.

In the case of `CCCCc1oc2ccccc2c1CNc1ccc(OS(=O)(=O)c2ccc(C(=O)O)c(O)c2)cc1` [Example 15, 4-{4-[(2-Butyl-benzofuran-3-ylmethyl)-amino]-phenoxysulfonyl}-2-hydroxy-benzoic acid], the melting point fell in the range of 75 to 77 °C. Also, the inhibition at 1 µM in series [1] stood at 28.8%.

In turn, `CC(=O)Oc1cc(S(=O)(=O)Oc2ccc(C(=O)c3c(Cc4ccccc4)oc(C)c3C)cc2C2CCCC2)ccc1C(=O)O` [Example 22, 2-Acetoxy4-[4-(2-benzyl-4,5-dimethyl-furan-3-carbonyl)-2-cyclopentyl-phenoxysulfonyl]-benzoic acid] had a melting point of 55 to 90 °C. Moreover, the IC50 in series [1] came to 508 nM.

In turn, `Cc1oc(Cc2ccccc2)c(C(=O)c2ccc(OS(=O)(=O)c3ccc(C(=O)O)c(O)c3)c(C3CCCC3)c2)c1C` [Example 17, 4-[4-(2-Benzyl-4,5-dimethyl-furan-3-carbonyl)-2-cyclopentyl-phenoxysulfonyl]-2-hydroxy-benzoic acid] showed a melting point of 80 to 85 °C. Also, the half-maximal inhibitory concentration (IC50) in series [1] was 643 nM.

In the case of “4-[4-(2-Butyl-benzofuran-3-carbonyl)-phenylsulfonyl]-2-hydroxy-benzoic acid [Example 16]”, in series [1], the “% inhibition @ 0.5 μM” value came to 22.81% inhibition @ 0.5 μM.

Take “Ammonium molybdate tetrahydrate [reference compound]”: the concentration for half-maximal inhibition (IC50) in series [1] turned out to be 8700 nM.
